For data set [1], the system named is patients with uterine cervical cancer. To be noted: administered parentally; cited from earlier work.
Data set [2] has as its system HIV-associated myopathy and muscle weakness/wasting. As to the kind of experiment: Case example: HIV-seropositive patient with HIV-associated myopathy and muscle weakness/wasting. It counts as in vivo, human. Conditions: for return to previous levels of function and strength: trial after oxandrolone was no longer obtainable. An excerpt: A patient, a homosexual person, known to be HIV-seropositive since February 1989, noted difficulty opening drawers and bottles in May 1989. […] However, their muscle stretch reflexes remained normal.
They complained of an inability to ascend a flight of stairs. […] The patient's creatine kinase tested at 456 Units per liter. […] Round cell inflammatory infiltrates were also noted. In light of these developments, the zidovudine treatment was terminated.
Substantial improvement initially followed the discontinuation of zidovudine. However, because of a subsequent continued and progressive weakness rendering it difficult for the patient to ascend or descend a flight of stairs, a prednisone therapy (60 mg daily) was initiated.
Thereafter, a trial period of oral oxandrolone administration (2.5 milligrams, three times daily, in tablet form) was initiated. […] The patient's weight increased from 115 pounds to 130 pounds. The patient's muscle atrophy was alleviated as well.
After several months of the aforementioned therapy with oxandrolone, the patient was no longer able to obtain oxandrolone for use as a medication. Weakness and weight loss ensued.

Another data set deals with acute uremic rats. To be noted: cited from earlier work.
The subject of a further data set is chronic renal failure. Conditions: cited from earlier work.
For data set [3] the following is noted: cited from earlier work.
The conditions of data set [4]: published parameter; cited from earlier work.
Data set [5] deals with patients with acute alcoholic hepatitis. To be noted: cited from earlier work.
The mark [6] stands for this setting: oral 2.5 milligrams three times daily.
The mark [7] stands for this setting: man, oral 10 milligram dose, biphasic decline.

Where two headings read alike, the source gives them in different places.

Broadly, the Tmax is the time from dosing to the highest level. Broadly, the Vd is the apparent volume that relates the amount in the body to the concentration in plasma or blood.

As to `CCCCCCCCCC(=O)O[C@H]1CC[C@H]2[C@@H]3CCC4=CC(=O)CC[C@@H]4[C@H]3CC[C@]12C` [nandrolone decanonate], the “macrophage activity and cell-mediated immunity” value in data set [1] was “enhanced macrophage activity and cell-mediated immunity”.

As for `CC1(O)CC[C@H]2[C@@H]3CCC4CC(=O)OC[C@]4(C)[C@H]3CC[C@@]21C` (stereo partly shown) [oxandrolone, 17-hydroxy-17-methyl-2-oxaandrostan-3-one], in data set [2] (setting [6]), the “ability to use stairs within one month” value was “able to ascend and descend stairs without problems”; the muscle atrophy entry is “alleviated”; the “strength by confrontation testing” value is “nearly normal strength”. For the same compound, the “liver functions / side effects” value in data set [2] (oral 2.5 milligrams three times daily, liver functions closely monitored) was “undesirable side effects were not detected”. Further, in data set [2] (oral 2.5 milligrams three times daily, tablet), the “patient's well being, strength and weight within two weeks” value is “improved sense of well being, became stronger, and gained weight”. In addition, in data set [2] (oral 2.5 milligrams three times daily, increased from 115 pounds), the “patient's weight after therapy” value is 130 pounds. Moreover, the muscle protein synthesis entry in the data set on acute uremic rats was “increased muscle protein synthesis”. Also, in the data set with chronic renal failure, the “clinical improvement after administration” value was “clinical improvement in appetite, cell mass, linear growth, and weight for height”. Besides, in data set [3] (after 96 hours), the “urinary excretion of the administered dose” value is recorded as “approximately 65%”. Moreover, in data set [3] (setting [7]), the distribution half-life entry was “approximately 30 minutes” and the elimination half-life is 9.4 h. In addition, in data set [3] (man, oral 10 milligram dose), the absorption entry is “rapidly and completely absorbed”; the “time of mean peak plasma concentration” value is 66 min. In addition, in data set [3] (man), the protein binding result is listed as “extensive”. Also, the fecal excretion result in data set [3] (over the same time period (96 hours)) is “less than 3%”. In addition, the form of excretion result in data set [3] (taken orally) was “excreted mainly unchanged and unconjugated in urine”. For the same compound, the “urinary excretion of an oral dose” value in data set [3] (within 72 hours after ingestion) is listed as “approximately 35%”. Also, in data set [4], the “Biological T½” value is reported as 9.4 hr, the Glucuronidation entry is given as “Little”, the Metabolism result is recorded as “Little” and the “Oral Bioavailability” value is recorded as 100%. Further, in data set [4], the “Plasma Clearance” value was 0.717 mL/min/kg, the Tmax was 1.1 h, the Vd was 0.578 L/kg and the “protein binding” value is reported as over 95%. For the same compound, the drug-related nephrotoxicity entry in data set [5] (daily doses up to 80 mg/day for four weeks and 40 mg/day for eight weeks) is reported as “did not result in any drug-related nephrotoxicity”. Further, in data set [5] (patients with severe alcoholic hepatitis), the lymphocyte number result was “significantly improved lymphocyte number”.

`C[C@]12C/C(=C/O)C(=O)C[C@@H]1CC[C@@H]1[C@@H]2CC[C@@]2(C)[C@H]1CC[C@]2(C)O` [oxymethalone]: the “return to previous levels of function and strength” value in data set [2] is “did not return the patient to their previous levels of function and strength”.

On to `C[C@]12C=CC(=O)C=C1CC[C@@H]1[C@@H]2C(=O)C[C@@]2(C)[C@H]1CC[C@]2(O)C(=O)CO` [prednisone], for which the improvement of weakness result in data set [2] (60 mg daily) is recorded as “No significant improvement”.

For `C[C@]12Cc3c[nH]nc3C[C@@H]1CC[C@@H]1[C@@H]2CC[C@@]2(C)[C@H]1CC[C@]2(C)O` [stanazol], the “return to previous levels of function and strength” value in data set [2] is “did not return the patient to their previous levels of function and strength”.

The values above are taken from patent publication US6670351B1, “Method for ameliorating muscle weakness/wasting in a patient infected with human immunodeficiency virus-type 1” (Bio-Technology General Corporation, priority 1992, dated 2003).
